One compound from patent publication US9107926B2, “Mutant selectivity and combinations of a phosphoinositide 3-kinase inhibitor compound and chemotherapeutic agents for the treatment of cancer” (Genentech, Inc., priority 2012, dated 2015) can be followed below.

One may read the EC50 as the concentration giving half of the maximal effect. A high value points to a need for much substance.

What all share (type): cell-based
One assay deals with 22RV1. Put plainly: CellTiter-Glo cell proliferation assay. Conditions: Homo sapiens, Prostate, Helical-HET.546Q > R.
A further assay deals with HCC-1419. Put plainly: CellTiter-Glo cell proliferation assay. Conditions: Homo sapiens, HCC1419, Breast, WT.
The next assay has as its system MX-1. Briefly: CellTiter-Glo cell proliferation assay. Conditions: Homo sapiens, MX1, Breast, PTEN. For orientation: Cellular ATP, detected with luciferase, serves as a proxy for viable cell number.
A further assay has as its system HPAC. Briefly: CellTiter-Glo cell proliferation assay. Conditions: Homo sapiens, Pancreatic, K-RAS.
The subject of a further assay is H358. Briefly: CellTiter-Glo cell proliferation assay. The following applies: Homo sapiens, NCI-H358, Lung(NSCLC), K-RAS.
The subject of another assay is SKBR3. Briefly: CellTiter-Glo cell proliferation assay. The following applies: Homo sapiens, SK-BR-3, Breast, HER2 Amplified.
The next assay has as its system cancer cell lines. Put plainly: cell proliferation assays across cancer cell lines (FIGS. 1-3, 12). An excerpt:
EC50 values were established for the experiments.

Another assay relates to HCC-1143. Briefly: CellTiter-Glo cell proliferation assay. The following applies: Homo sapiens, HCC1143, Breast, WT.
In a further assay the test system is U-118MG. Put plainly: CellTiter-Glo cell proliferation assay. Conditions: Homo sapiens, Glioma, PTEN.

Experimental for MX-1: (§1) Cell Culture Medium: RPMI or DMEM high glucose, 10% Fetal Bovine Serum, 2 mM L-Glutamine, P/S. Incubate O/N (overnight) at 37° C., 5% CO2.
(§2) Drug Addition to Cells, Cell Plate (1:10 dilution): Add 6 μl of media+compound directly to cells (54 μl of media on the cells already). Incubate 3 days at 37° C., 5% CO2 in an incubator that will not be opened often.
(§3) Day 5—Develop Plates, Thaw Cell Titer Glo Buffer at room temperature: Remove Cell Plates from 37° C. and equilibrate to room temperature for about 30 minutes. Add Cell Titer-Glo® Buffer to Cell Titer-Glo® Substrate (bottle to bottle). Add 30 μl Cell Titer-Glo® Reagent (Promega cat.#G7572) to each well of cells. Place on plate shaker for about 30 minutes. Read luminescence on Analyst HT Plate Reader (half second per well).
Experimental for SKBR3: as §1, §2, §3

As for `Cc1nc(-c2cn3c(n2)-c2ccc(-c4cnn(C(C)(C)C(N)=O)c4)cc2OCC3)n(C(C)C)n1` [GDC-0032, 2-(4-(2-(1-isopropyl-3-methyl-1H-1,2,4-triazol-5-yl)-5,6-dihydrobenzo[f]imidazo[1,2-d][1,4]oxazepin-9-yl)-1H-pyrazol-1-yl)-2-methylpropanamide], the EC50 in the assay with 22RV1 came out at 50 nM; in the assay with HCC-1419 it was 46 nM; with MX-1, 892 nM; with HPAC, 645 nM; in the assay on H358, 220 nM; in the assay with SKBR3, 43 nM. The EC50 with HCC-1143 stood at 2970 nM; in the assay on U-118MG it was 3.2 µM. The “sensitivity of cancer cell lines with HER2 amplification versus those without HER2 amplification” value with cancer cell lines (EC50, cell proliferation assays) was “about 44 times”. The “potency against PIK3CA mutant and HER2+ cells (comparison)” value in the assay on cancer cell lines (FIGS. 1A, 1B, 2A, 2B) was “more potent against PIK3CA mutant cells and HER2+ breast cancer cells than GDC-0941”.
